The values that follow come from patent US5643908A, “Collagenase inhibitor” (Sankyo Company, Limited, priority 1991, dated 1997).

Residues, ends and D or L forms follow the SMILES beside them. *: point of attachment. Cbz = O=C(OCc1ccccc1)*; NHOH = ON*

For the first assay, the target named is T1, type IV collagenases (Homo sapiens, UniProt P08253).
T1 construct: type IV collagenases prepared from a serum-free culture medium of human melanoma cells; endogenous in cells
T1 sequence (P08253 110-660): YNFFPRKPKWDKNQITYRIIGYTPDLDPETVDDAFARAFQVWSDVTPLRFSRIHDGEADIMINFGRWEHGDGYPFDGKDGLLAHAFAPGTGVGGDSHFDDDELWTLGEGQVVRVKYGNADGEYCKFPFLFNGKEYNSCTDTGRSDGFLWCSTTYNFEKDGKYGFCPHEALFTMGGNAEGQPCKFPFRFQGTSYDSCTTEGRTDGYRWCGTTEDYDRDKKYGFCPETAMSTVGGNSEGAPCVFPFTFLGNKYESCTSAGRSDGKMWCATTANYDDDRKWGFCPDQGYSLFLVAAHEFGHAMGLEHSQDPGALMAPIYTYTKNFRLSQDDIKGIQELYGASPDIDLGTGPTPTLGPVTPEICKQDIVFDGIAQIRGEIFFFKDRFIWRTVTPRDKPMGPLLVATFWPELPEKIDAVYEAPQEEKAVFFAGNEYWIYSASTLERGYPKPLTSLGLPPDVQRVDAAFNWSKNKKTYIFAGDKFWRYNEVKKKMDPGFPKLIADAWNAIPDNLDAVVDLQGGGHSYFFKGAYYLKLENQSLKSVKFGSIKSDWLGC
Kind of assay: Inhibitory activity on type IV collagenases: cleavage of radio-labelled type IV collagen. Format: biochemical. The following applies: type IV collagenases from serum-free culture medium of human melanoma cells; radio-labelled type IV collagen from mouse EHS tumor as substrate. The method, then: The activity of type IV collagenase was assayed according to the method of Salo et al. [J. Biol. Chem., Vol. 258, 3058-3063 (1983)].
In detail, the activity was assayed by measuring the cleavage of collagen by using type IV collagenases prepared from a serum-free culture medium of human melanoma cells, and type IV collagen prepared from mouse EHS tumor radio-labelled as a substrate.
The inhibitory activity on type IV collagenases was measured by calculating the inhibition percent of the enzyme reaction, in which the test samples were added to the reaction mixture.
The results (expressed as I50) is shown below.
`CCCCC[C@H](CC(=O)NO)C(=O)N1NCCC[C@H]1C(=O)N[C@H](C(=O)N(C)OC)C(C)C` [Example 3, 2-(S)-[N^2-[2-(R)-(Hydroxyaminocarbonyl)methyl-1-oxoheptyl]-(S)-piperazyl]aminoisovaleric acid N-methyl-N-methoxyamide] had an IC50 of 330 nM.

Turning to `CCCCC[C@H](CC(=O)NO)C(=O)N1NCCC[C@H]1C(=O)N[C@H](C(=O)OC)C(C)C` [Example 4, Methyl 2-(S)-[N^2-[2-(R)-(Hydroxyaminocarbonyl)methyl-1-oxoheptyl]-(S)-piperazyl]aminoisovalerate], the IC50 is 350 nM.

The molecule `CCCCC[C@H](CC(=O)NO)C(=O)N1NCCC[C@H]1C(=O)N[C@H](C(=O)OC(C)(C)C)C(C)C` [Example 5] displayed an IC50 of 360 nM.

For the molecule `CCCCCC[C@H](CC(=O)NO)C(=O)N1NCCC[C@H]1C(=O)NC` [Example 14, N^2-[2-(R)-(Hydroxyaminocarbonyl)methyl-1-oxooctyl]-(S)-piperazic acid N-methylamide], the IC50 worked out at 82 nM.

The molecule `CCCCCCC[C@H](CC(=O)NO)C(=O)N1NCCC[C@H]1C(=O)NC` [Example 16, N^2-[2-(R)-(Hydroxyaminocarbonyl)methyl-1-oxononyl]-(S)-piperazic acid N-methylamide] displayed an IC50 of 42 nM.

The molecule `CCCCCCC[C@H](CC(=O)NO)C(=O)N1NCCC[C@H]1C(=O)N(C)C` [Example 17, N^2-[2-(R)-(Hydroxyaminocarbonyl)methyl-1-oxononyl]-(S)-piperazic acid N,N-dimethylamide] gave an IC50 of 270 nM.

Consider `CCCCCCCCCC[C@H](CC(=O)NO)C(=O)N1NCCC[C@H]1C(=O)NC` [Example 18, N^2-[2-(R)-(Hydroxyaminocarbonyl)methyl-1-oxododecyl]-(S)-piperazic acid N-methylamide], for which the IC50 is 27 nM.

The molecule `CCCCCCCCCC[C@H](CC(=O)NO)C(=O)N1NCCC[C@H]1C(=O)N(C)C` [Example 19, N^2-[2-(R)-(Hydroxyaminocarbonyl)methyl-1-oxododecyl]-(S)-piperazic acid N,N-dimethylamide] had an IC50 of 80 nM.

Molecule `CNC(=O)[C@@H]1CCCNN1C(=O)[C@H](CCc1ccccc1)CC(=O)NO` [Example 20, N^2-[2-(R)-(Hydroxyaminocarbonyl)methyl-1-oxo-4-phenylbutyl]-(S)-piperazic acid N-methylamide] gave an IC50 of 73 nM.

The molecule `CN(C)C(=O)[C@@H]1CCCNN1C(=O)[C@H](CCc1ccccc1)CC(=O)NO` [Example 21, N^2-[2-(R)-(Hydroxyaminocarbonyl)methyl-1-oxo-4-phenylbutyl]-(S)-piperazic acid N,N-dimethylamide] came in with an IC50 of 280 nM.

Molecule `CCCCC[C@H](CC(=O)NO)C(=O)N1NCCC[C@H]1C(=O)NCC` [Example 27, N^2-[2-(R)-(Hydroxyaminocarbonyl)methyl-1-oxoheptyl]-(S)-piperazic acid N-ethylamide] came in with an IC50 of 160 nM.

Regarding `CCCCC[C@H](CC(=O)NO)C(=O)N1NCCC[C@H]1C(N)=O` [Example 29, N^2-[2-(R)-(Hydroxyaminocarbonyl)methyl-1-oxoheptyl]-(S)-piperazylamide], the IC50 stood at 250 nM.

Consider `CCCCC[C@H](CC(=O)NO)C(=O)N1NCCC[C@H]1C(=O)NCC(C)C` [Example 30, N^2-[2-(R)-(Hydroxyaminocarbonyl)methyl-1-oxoheptyl]-(S)-piperazic acid N-isobutylamide], for which half-maximal inhibition (IC50) was put at 240 nM.

For the molecule `CC(C)C[C@H](CC(=O)NO)C(=O)N1NCCC[C@H]1C(=O)N(C)C` [Example 32, N^2-[2-(R)-(Hydroxyaminocarbonyl)methyl-1-oxo-4-methyl-pentyl]-(S)-piperazic acid N,N-dimethylamide], the IC50 was determined as 750 nM.

With `CCCCCCCC[C@H](CC(=O)NO)C(=O)N1NCCC[C@H]1C(=O)N(C)C` [Example 33, N^2-[2-(R)-(Hydroxyaminocarbonyl)methyl-1-oxodecyl]-(S)-piperazic acid N,N-dimethylamide], inhibition was half-maximal at 64 nM (IC50).

Regarding `CCCCCCCC[C@H](CC(=O)NO)C(=O)N1NCCC[C@H]1C(=O)NCC` [Example 34, N^2-[2-(R)-(Hydroxyaminocarbonyl)methyl-1-oxodecyl]-(S)-piperazic acid N-ethylamide], the midpoint of inhibition, the IC50, lay at 37 nM.

Turning to `CCCCCCCC[C@H](CC(=O)NO)C(=O)N1NCCC[C@H]1C(=O)N(CC)CC` [Example 35, N^2-[2-(R)-(Hydroxyaminocarbonyl)methyl-1-oxodecyl]-(S)-piperazic acid N,N-diethylamide], the IC50 was determined as 200 nM.

The molecule `CCCCC[C@H](CC(=O)NO)C(=O)N1NCCC[C@H]1C(=O)N[C@H](C(=O)CC)[C@@H](C)CC` [Example 108, reference compound] yielded an IC50 of 1400 nM.

For `CCCCC[C@H](CC(=O)NO)C(=O)N1NCCC[C@H]1C(=O)N[C@@H](C(=O)CC)[C@H](C)CC` [Example 109, N^2-[2-(R)-(Hydroxyaminocarbonyl)methyl-1-oxoheptyl]-(S)-piperazic acid (4R,5R)-5-methyl-3-oxoheptan-4-ylamide, reference compound], the IC50 was determined as 4300 nM.

`CCCCC[C@H](CC(=O)NO)C(=O)N1NCCC[C@@H]1C(=O)N[C@H](C(=O)CC)[C@@H](C)CC` [Example 110, N^2-[2-(R)-(Hydroxyaminocarbonyl)methyl-1-oxoheptyl]-(R)-piperazic acid (4S,5S)-methyl-3-oxoheptan-4-ylamide, reference compound] came in with an IC50 of 18500 nM.

Another assay concerns type IV collagenases.
Experiment: not given
The following applies: cited from earlier work.
For the molecule `CNC(=O)[C@H](Cc1ccc(OC)cc1)NC(=O)[C@@H](CC(=O)NO)CC(C)C` [SC 44463], the “inhibitor relatively specific to type IV collagenases” value is recorded as “inhibitor relatively specific to type IV collagenases”.

A further assay concerns cancer metastasis.
Experiment: not given
The following applies: animal experiment; cited from earlier work.
With `CNC(=O)[C@H](Cc1ccc(OC)cc1)NC(=O)[C@@H](CC(=O)NO)CC(C)C` [SC 44463], the “inhibitory activity on cancer metastasis” value is reported as “confirmed to exhibit an inhibitory activity on cancer metastasis”.

The test system of another assay is aminopeptidase M.
Experiment: not given
Particulars: low concentrations; cited from earlier work.
On to `CCCCC[C@H](CC(=O)NO)C(=O)N[C@H](C(=O)N1CCC[C@H]1CO)C(C)C` [actinonin], for which the “inhibition of aminopeptidase M” value is “inhibit aminopeptidase M at low concentrations”.

The subject of another assay is collagenase.
Experiment: not given
The following applies: cited from earlier work.
With `CCCCCC(CC(=O)NO)C(=O)N1NCCCC1C(=O)NC(CC(C)C)C(C)=O` (stereo not drawn), the collagenase inhibiting activity result is “collagenase inhibiting activities”.

As to `CC(C)C[C@H](NC(=O)[C@@H]1CCCN1C(=O)OCc1ccccc1)C(=O)NCC(=O)NO` [benzyloxycarbonyl propyl-leucyl-glycylhydroxamic acid] (Cbz-Pro-Leu-Gly-{NHOH}), the collagenase inhibiting activity entry is “showing collagenase inhibiting effects”.

The next assay deals with bacteria.
Experiment: not given
The following applies: cited from earlier work.
For `CCCCCC(CC(=O)NO)C(=O)N1NCCCC1C(=O)NC(CC(C)C)C(C)=O` (stereo not drawn), the antibacterial activity result is on record as “antibacterial”.

Take `CCCCCC(CC(=O)NO)C(=O)N1NCCCC1C(=O)NC(C(=O)CC)C(C)CC` (stereo not drawn): the antibacterial activity result is “antibacterial activity”.

The term IC50 denotes the concentration that inhibits the measured activity by half. Low values mean inhibition by little substance, high ones a need for much substance.
